Source: PubChem BioAssay AID248 (DTP/NCI, 2004)
Values joined by “and” are separate entries in the source; they are usually repeats but may differ in a detail not shown here. Identical values can stand only once. Inconclusive results and toxic doses are left out. Cut-off read from the data, not from the text of the source: active = T/C of 150% or more; inactive = T/C below 125%.

System: L1210 leukemia ip in BDF1 mice, survival T/C
Experiment: NCI In Vivo Anticancer Drug Screen. Data for tumor model L1210 Leukemia (intraperitoneal) in B6D2F1 (BDF1) mice
Conditions: endpoint: mean survival time, higher = longer survival
Outline: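 Each compound was tested against a transplantable tumor grown in mice. The endpoint was survival, with treated animals benchmarked against vehicle controls as a simple ratio.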

[1] = dose: 100.0 mg/kg/injection, schedule: Q01DX001 (ip), vehicle: saline
[2] = dose: 100.0 mg/kg/injection, schedule: Q04DX003 (ip), vehicle: saline
[3] = dose: 200.0 mg/kg/injection, schedule: Q01DX001 (ip), vehicle: saline
[4] = dose: 200.0 mg/kg/injection, schedule: Q04DX003 (ip), vehicle: saline
[5] = dose: 400.0 mg/kg/injection, schedule: Q01DX001 (ip), vehicle: saline
[6] = dose: 400.0 mg/kg/injection, schedule: Q04DX003 (ip), vehicle: saline
[7] = dose: 100.0 mg/kg/injection, schedule: Q01DX009 (ip), vehicle: Klucel (hydroxypropylcellulose) (HPC)
[8] = dose: 200.0 mg/kg/injection, schedule: Q01DX009 (ip), vehicle: Klucel (hydroxypropylcellulose) (HPC)
[9] = dose: 400.0 mg/kg/injection, schedule: Q01DX009 (ip), vehicle: Klucel (hydroxypropylcellulose) (HPC)
[10] = dose: 50.0 mg/kg/injection, schedule: Q01DX001 (ip), vehicle: saline
[11] = dose: 100.0 mg/kg/injection, schedule: Q01DX009 (ip), vehicle: saline

Measured: T/C

N=C(N)C[n+]1ccccc1
inactive: [1] 98 % of control | [2] 95 % of control | [3] 109 % of control | [4] 111 % of control | [5] 104 % of control | [6] 89 % of control

Cc1cccc(C)c1NC(=S)N1CCOCC1
inactive: dose: 100.0 mg/kg/injection, schedule: Q01DX009 (ip), vehicle: other 106 % of control | dose: 200.0 mg/kg/injection, schedule: Q01DX009 (ip), vehicle: other 116 % of control | dose: 400.0 mg/kg/injection, schedule: Q01DX009 (ip), vehicle: other 122 % of control

N#CC(O)Cc1ccccc1 (stereo not given)
inactive: dose: 2.5 mg/kg/injection, schedule: Q01DX009 (ip), vehicle: saline 95 % of control | dose: 5.0 mg/kg/injection, schedule: Q01DX009 (ip), vehicle: saline 90 % of control | dose: 10.0 mg/kg/injection, schedule: Q01DX009 (ip), vehicle: saline 97 % of control

CC(C)=NNC(=O)Nc1ccc(C)c(Cl)c1
inactive: dose: 50.0 mg/kg/injection, schedule: Q01DX001 (ip), vehicle: Klucel (hydroxypropylcellulose) (HPC) 90 % of control | dose: 100.0 mg/kg/injection, schedule: Q01DX001 (ip), vehicle: Klucel (hydroxypropylcellulose) (HPC) 103 % of control and 90 % of control | [7] 102 % of control | dose: 100.0 mg/kg/injection, schedule: Q04DX002 (ip), vehicle: Klucel (hydroxypropylcellulose) (HPC) 101 % of control and 86 % of control | dose: 200.0 mg/kg/injection, schedule: Q01DX001 (ip), vehicle: Klucel (hydroxypropylcellulose) (HPC) 92 % of control | [8] 93 % of control | dose: 200.0 mg/kg/injection, schedule: Q04DX002 (ip), vehicle: Klucel (hydroxypropylcellulose) (HPC) 98 % of control and 100 % of control | dose: 400.0 mg/kg/injection, schedule: Q01DX001 (ip), vehicle: Klucel (hydroxypropylcellulose) (HPC) 87 % of control | [9] 86 % of control | dose: 400.0 mg/kg/injection, schedule: Q04DX002 (ip), vehicle: Klucel (hydroxypropylcellulose) (HPC) 95 % of control and 89 % of control

COc1cccc(CC(=O)c2c[nH]c3ccccc23)c1
inactive: [10] 104 % of control | [1] 101 % of control | [3] 98 % of control | [5] 101 % of control

O=S(=O)(O)/C(=C\c1ccccc1)c1ccccc1 (tested in a mixture with another compound)
inactive: [1] 103 % of control | dose: 100.0 mg/kg/injection, schedule: Q04DX003 (ip), vehicle: other 106 % of control | [3] 104 % of control | dose: 200.0 mg/kg/injection, schedule: Q04DX003 (ip), vehicle: other 106 % of control | dose: 264.0 mg/kg/injection, schedule: Q01DX001 (ip), vehicle: other 108 % of control | dose: 400.0 mg/kg/injection, schedule: Q01DX001 (ip), vehicle: other 94 % of control | [5] 115 % of control

CCn1nnc2c(=O)[nH]c(N)nc21
inactive: dose: 100.0 mg/kg/injection, schedule: Q04DX003 (ip), vehicle: saline with Tween-80 105 % of control | dose: 200.0 mg/kg/injection, schedule: Q04DX003 (ip), vehicle: saline with Tween-80 104 % of control | dose: 400.0 mg/kg/injection, schedule: Q04DX003 (ip), vehicle: saline with Tween-80 94 % of control

O=C(Nc1ccc2c(c1)OCO2)O/N=C1\C(=O)Nc2ccccc21
inactive: dose: 50.0 mg/kg/injection, schedule: Q01DX009 (ip), vehicle: saline 103 % of control | [11] 100 % of control

CCS(=O)(=O)/C=C/c1cccnc1
inactive: dose: 100.0 mg/kg/injection, schedule: Q04DX002 (ip), vehicle: saline 96 % of control | dose: 200.0 mg/kg/injection, schedule: Q04DX002 (ip), vehicle: saline 100 % of control | dose: 400.0 mg/kg/injection, schedule: Q04DX002 (ip), vehicle: saline 107 % of control

O=C(/C=C/c1cccc(Cl)c1)c1ccc(Cl)cc1
inactive: dose: 25.0 mg/kg/injection, schedule: Q01DX009 (ip), vehicle: saline with Tween-80 95 % of control and 96 % of control | dose: 25.0 mg/kg/injection, schedule: Q04DX003 (ip), vehicle: carboxymethylcellulose (CMC) 95 % of control and 103 % of control | dose: 50.0 mg/kg/injection, schedule: Q01DX009 (ip), vehicle: saline with Tween-80 93 % of control and 95 % of control | dose: 50.0 mg/kg/injection, schedule: Q04DX003 (ip), vehicle: carboxymethylcellulose (CMC) 105 % of control and 89 % of control | dose: 100.0 mg/kg/injection, schedule: Q01DX001 (ip), vehicle: carboxymethylcellulose (CMC) 94 % of control | dose: 100.0 mg/kg/injection, schedule: Q01DX009 (ip), vehicle: carboxymethylcellulose (CMC) 86 % of control | dose: 100.0 mg/kg/injection, schedule: Q01DX009 (ip), vehicle: saline with Tween-80 92 % of control and 91 % of control | dose: 100.0 mg/kg/injection, schedule: Q04DX002 (ip), vehicle: carboxymethylcellulose (CMC) 92 % of control and 100 % of control | dose: 200.0 mg/kg/injection, schedule: Q01DX001 (ip), vehicle: carboxymethylcellulose (CMC) 92 % of control | dose: 200.0 mg/kg/injection, schedule: Q01DX009 (ip), vehicle: carboxymethylcellulose (CMC) 90 % of control | dose: 200.0 mg/kg/injection, schedule: Q04DX002 (ip), vehicle: carboxymethylcellulose (CMC) 100 % of control and 107 % of control | dose: 200.0 mg/kg/injection, schedule: Q04DX003 (ip), vehicle: carboxymethylcellulose (CMC) 96 % of control | dose: 400.0 mg/kg/injection, schedule: Q01DX001 (ip), vehicle: carboxymethylcellulose (CMC) 92 % of control | dose: 400.0 mg/kg/injection, schedule: Q04DX002 (ip), vehicle: carboxymethylcellulose (CMC) 100 % of control and 102 % of control | dose: 400.0 mg/kg/injection, schedule: Q04DX003 (ip), vehicle: carboxymethylcellulose (CMC) 91 % of control

Cn1c(=O)cc(CCl)c2ccccc21
inactive: dose: 100.0 mg/kg/injection, schedule: Q01DX001 (ip), vehicle: other 105 % of control

O=C(O)c1n[nH]nc1[N+](=O)[O-]
inactive: dose: 75.0 mg/kg/injection, schedule: Q01DX001 (ip), vehicle: saline 96 % of control | dose: 150.0 mg/kg/injection, schedule: Q01DX001 (ip), vehicle: saline 105 % of control | dose: 300.0 mg/kg/injection, schedule: Q01DX001 (ip), vehicle: saline 98 % of control

O=C(O)CCCCCNC(=O)c1ccccc1
inactive: [7] 92 % of control | [2] 114 % of control | [8] 93 % of control | [4] 100 % of control | [9] 102 % of control | [6] 103 % of control

COc1ccc2c(C)c(C)[nH]c2c1
inactive: [10] 101 % of control | [1] 109 % of control | [3] 115 % of control | [5] 104 % of control

CCCOCC(O)CO (stereo not given)
inactive: [11] 100 % of control | [2] 107 % of control | dose: 200.0 mg/kg/injection, schedule: Q01DX009 (ip), vehicle: saline 98 % of control | [4] 102 % of control | dose: 400.0 mg/kg/injection, schedule: Q01DX009 (ip), vehicle: saline 102 % of control | [6] 110 % of control

CCCC[N+](CCCC)=c1cc(-c2ccc(Cl)cc2)ss1
inactive: dose: 100.0 mg/kg/injection, schedule: Q04DX003 (ip), vehicle: water 95 % of control | dose: 200.0 mg/kg/injection, schedule: Q04DX003 (ip), vehicle: water 96 % of control

O=[N+]([O-])n1cnnc1-c1ccccc1
inactive: dose: 12.5 mg/kg/injection, schedule: Q04DX003 (ip), vehicle: gum acacia 96 % of control | dose: 25.0 mg/kg/injection, schedule: Q04DX003 (ip), vehicle: gum acacia 102 % of control | dose: 50.0 mg/kg/injection, schedule: Q04DX003 (ip), vehicle: gum acacia 98 % of control

COc1ccc(/C(=N\O)C(c2ccc(OC)cc2)C(Cl)(Cl)Cl)cc1 (stereo not given)
inactive: [7] 92 % of control | [8] 95 % of control | [9] 97 % of control

O=C1CCSc2c1ccc1ccccc21
inactive: [1] 87 % of control
